Data from patent publication US20060142349A1, “Methods of modulating the activities of alpha-7 nicotinic acetylcholine receptor” (Pfizer Inc, priority 2004, published 2006).
Entries after “also recorded” stand apart in the source; their conditions may differ. Where two headings read alike, the source gives them in different places.

Assays:
[1] = biological target: T1, α7 nicotinic acetylcholine receptor (Rattus norvegicus, UniProt Q05941); test: Inhibition of desensitization of α7 nicotinic acetylcholine receptor by acetylcholine, whole cell patch clamp; type: cell-based; conditions: rat hippocampal neurons, continuous exposure to compound, acetylcholine 1 mM applied for 1 second once every minute
T1 construct: Currents were recorded from individual neurons using the whole; endogenous in cells; host or cells: primary hippocampal neurons from postnatal day 3 Sprague-Dawley rats, cultured 1-2 weeks
T1 sequence (Q05941 23-502): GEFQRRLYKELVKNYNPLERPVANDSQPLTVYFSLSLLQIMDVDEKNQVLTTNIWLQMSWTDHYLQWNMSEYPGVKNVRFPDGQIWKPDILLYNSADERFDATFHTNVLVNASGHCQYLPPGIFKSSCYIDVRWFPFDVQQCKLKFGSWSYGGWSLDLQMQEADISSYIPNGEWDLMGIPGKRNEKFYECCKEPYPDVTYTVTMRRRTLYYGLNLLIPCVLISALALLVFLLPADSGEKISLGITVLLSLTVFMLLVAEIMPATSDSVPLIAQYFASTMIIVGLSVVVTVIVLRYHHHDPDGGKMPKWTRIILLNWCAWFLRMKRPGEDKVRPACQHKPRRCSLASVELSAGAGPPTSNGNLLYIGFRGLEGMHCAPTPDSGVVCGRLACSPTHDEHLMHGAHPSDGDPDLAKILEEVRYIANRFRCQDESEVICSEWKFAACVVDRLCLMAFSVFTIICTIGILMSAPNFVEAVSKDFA

[2] = biological target: T1, α7 nicotinic acetylcholine receptor; test: Resensitization of desensitized α7 nicotinic acetylcholine receptor, whole cell patch clamp; type: cell-based

Oc1ccc2[nH]ccc2c1 [5-hydroxyindole]
inhibition of desensitization (desensitization kinetics of acetylcholine-induced ion currents) [1]: does not alter the rate of receptor desensitization; also recorded: had no such effect; also recorded: did not affect the desensitization kinetics
resensitization of the desensitized α7 nicotinic acetylcholine receptor (inward current evoked in the continued presence of agonist) ([2]; rat hippocampal neurons, applied after 60 seconds of continuous exposure to agonist Compound 1 (3 μM), in its continued presence): does not resensitize; also recorded: did not resensitize; also recorded: no significant effect

Cl.O=C(N[C@H]1CN2CCC1CC2)c1ccc(Cl)cc1 [Compound 1, N-[(3R)-1-azabicyclo[2.2.2]oct-3-yl]-4-chlorobenzamide hydrochloride]
agonist-evoked inward current and receptor desensitization ([2]; rat hippocampal neurons, agonist applied continuously for 3 minutes, hydrochloride): desensitization; also recorded: initial inward current that rapidly declined back to baseline

COc1cc(OC)c(NC(=O)Nc2cc(C)on2)cc1Cl [Compound 2, N-(5-chloro-2,4-dimethoxyphenyl)-N′-(5-methylisoxazol-3-yl)urea]
inhibition of desensitization (desensitization kinetics of acetylcholine-induced ion currents) [1]: inhibition
inhibition of desensitization (desensitization kinetics of acetylcholine-induced ion currents) ([1]; listed as compound 2): significant inhibition or slowing of receptor desensitization
resensitization of the desensitized α7 nicotinic acetylcholine receptor (inward current evoked in the continued presence of agonist) [2]: resensitizes; also recorded: large persistent inward current that was readily reversed upon washout

CN1CCCC1c1cccnc1 (stereo not shown) [nicotine]
agonist-evoked inward current and receptor desensitization ([2]; nicotine as agonist, expected result ("should result")): initial inward current that rapidly declines back to baseline
